Test systems include NCI-H460 lung; DU-145 prostate; TK-10 renal; MCF7 breast; UACC-257 melanoma; RXF 393 renal; EKVX NSCLC; IGROV1 ovarian; ACHN renal; CAKI-1 renal.
Holding throughout (test): DTP human tumour cell line panel, 48 h

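These data come from cells grown in 96-well plates and exposed to compound for 48 hours at five concentrations. Here, GI50 denotes the concentration required for 50% inhibition of growth. TGI: total growth inhibition.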

For `CCCCCCCCCCCCCCCC(=O)NS(=O)(=O)OC[C@H]1O[C@@H](n2cnc3c(N)ncnc32)[C@H](O)[C@@H]1O`, the GI50 in the assay with NCI-H460 lung is 0.107 µM; in the assay on DU-145 prostate, below 0.0462 µM; in the assay with TK-10 renal it was below 0.0163 µM; in the assay with MCF7 breast, 0.509 µM; in the assay with UACC-257 melanoma, 0.333 µM; in the assay on RXF 393 renal, below 0.0161 µM. Moreover, the GI50 is 0.271 µM in the assay with EKVX NSCLC and 0.0371 µM in the assay on IGROV1 ovarian. The concentration for total growth inhibition (TGI) was 8.6 µM in the assay on NCI-H460 lung; 3.98 µM in the assay on DU-145 prostate; below 0.0259 µM in the assay with TK-10 renal; 9.77 µM in the assay with MCF7 breast; 1.47 µM with UACC-257 melanoma; below 0.0284 µM in the assay on RXF 393 renal. Also, the results for the TGI with EKVX NSCLC, with IGROV1 ovarian and in the assay on ACHN renal were 1.74 µM, 0.199 µM and 1.64 µM, respectively.

Consider `COc1ccc2nc3cc([N+](=O)[O-])ccc3c(NCCO)c2c1`, for which the GI50 was 1.66 µM in the assay with NCI-H460 lung; 3.62 µM in the assay on DU-145 prostate; 10.1 µM in the assay on CAKI-1 renal; 1.11 µM in the assay on MCF7 breast; 2.61 µM in the assay with UACC-257 melanoma; 24.4 µM in the assay with EKVX NSCLC. The GI50 with IGROV1 ovarian was 3.17 µM; in the assay with ACHN renal it was 4.87 µM. Further, the TGI worked out at 4.9 µM in the assay with NCI-H460 lung; 30 µM in the assay with CAKI-1 renal; 4.17 µM in the assay on MCF7 breast; 7.68 µM in the assay on UACC-257 melanoma; 13.6 µM in the assay on IGROV1 ovarian; 31.7 µM in the assay with ACHN renal.

Consider `CCN1CCN(Cc2ccc(Nc3ncc(F)c(-c4cc(F)c5nc(C)n(C(C)C)c5c4)n3)nc2)CC1`, for which the GI50 is 0.959 µM with NCI-H460 lung; 5.75 µM in the assay with DU-145 prostate; 0.187 µM in the assay on CAKI-1 renal; 0.029 µM in the assay with TK-10 renal; 0.0241 µM with MCF7 breast; 5.45 µM in the assay on UACC-257 melanoma. In addition, the GI50 with RXF 393 renal is 0.389 µM; in the assay with IGROV1 ovarian it was 2.03 µM; with ACHN renal, 0.172 µM. Further, the TGI with NCI-H460 lung was found to be 12.7 µM; in the assay with DU-145 prostate, 12.2 µM; in the assay on CAKI-1 renal, 7.51 µM; in the assay on TK-10 renal, 8.63 µM; in the assay with MCF7 breast it was 10.4 µM; in the assay on UACC-257 melanoma, 7.97 µM. Moreover, the figures for the TGI in the assay on RXF 393 renal, with IGROV1 ovarian and in the assay with ACHN renal were 8.34 µM, 13.1 µM and 9.56 µM, respectively.

Take `COc1cc(-c2oc3c(OC)c(O)c(OC)c(O)c3c(=O)c2OC)cc(OC)c1OC`: the total growth inhibition concentration (TGI) in the assay on NCI-H460 lung, in the assay with DU-145 prostate, in the assay on CAKI-1 renal, in the assay on TK-10 renal, in the assay on MCF7 breast and with UACC-257 melanoma was above 100 µM throughout. In addition, the TGI in the assay on EKVX NSCLC, in the assay on IGROV1 ovarian and in the assay with ACHN renal was above 100 µM throughout.

In the case of `Cc1ccc2ncnc(N(C)C3CCCCC3)c2c1`, the GI50 was 25.3 µM in the assay on NCI-H460 lung; 33.9 µM in the assay with DU-145 prostate; 13.9 µM in the assay on CAKI-1 renal; 36 µM with TK-10 renal; 41.3 µM with MCF7 breast; 3.84 µM in the assay with RXF 393 renal. The figures for the GI50 in the assay on IGROV1 ovarian and with ACHN renal were 34.1 µM and 29 µM, respectively. For the same compound, the TGI in the assay with NCI-H460 lung is above 100 µM; in the assay on DU-145 prostate, above 100 µM; in the assay on CAKI-1 renal, 39 µM; in the assay on TK-10 renal, above 100 µM; in the assay on MCF7 breast, above 100 µM; with RXF 393 renal it was 17.9 µM. Further, the TGI in the assay with IGROV1 ovarian and in the assay on ACHN renal was above 100 µM throughout.

Consider `CCOc1cc(Cl)c(C(C)NC(=O)c2cccc(OC)c2)cc1OCC` (stereo not drawn), for which the GI50 was 4.79 µM in the assay on NCI-H460 lung; 24.8 µM in the assay with DU-145 prostate; 11.1 µM with CAKI-1 renal; 28.6 µM in the assay on TK-10 renal; 4.6 µM with MCF7 breast; 37 µM in the assay with UACC-257 melanoma. Also, the values for the GI50 with RXF 393 renal, with IGROV1 ovarian and with ACHN renal were 9.21 µM, 17.5 µM and 20.1 µM, respectively. The TGI was above 54.8 µM with NCI-H460 lung; above 100 µM in the assay with DU-145 prostate; above 100 µM with CAKI-1 renal; above 100 µM in the assay with TK-10 renal; above 100 µM in the assay with MCF7 breast; above 100 µM in the assay with UACC-257 melanoma. The TGI in the assay with RXF 393 renal was 63 µM; in the assay on IGROV1 ovarian, above 100 µM; in the assay on ACHN renal, above 100 µM.

Consider `COc1ccc(OC)c(C2=C(c3cn(C)c4ccccc34)C(=O)NC2=O)c1`, for which the GI50 in the assay with NCI-H460 lung was above 25 µM; in the assay on DU-145 prostate it was above 25 µM; with CAKI-1 renal it was above 25 µM; with TK-10 renal, above 25 µM; in the assay with MCF7 breast, above 20.7 µM; in the assay with UACC-257 melanoma it was above 25 µM. Also, the GI50 in the assay on RXF 393 renal, in the assay with IGROV1 ovarian and with ACHN renal was above 25 µM in each case. Besides, the concentration for total growth inhibition (TGI) in the assay on NCI-H460 lung, in the assay with DU-145 prostate, in the assay with CAKI-1 renal, with TK-10 renal, with MCF7 breast and with UACC-257 melanoma was above 25 µM each time. The TGI with RXF 393 renal, with IGROV1 ovarian and in the assay on ACHN renal was above 25 µM in each case.

As for `Cc1ccc(C2=NN(c3ccc(S(=O)(=O)NC(=O)NCc4ccccc4)cc3)C(c3ccc(N(C)C)cc3)C2)c(C)c1` (stereo not drawn), the GI50 in the assay on NCI-H460 lung is 3.33 µM; in the assay with DU-145 prostate, 4.6 µM; with CAKI-1 renal it was 3.45 µM; in the assay on TK-10 renal, 6.46 µM; in the assay with MCF7 breast, 2.99 µM; in the assay on UACC-257 melanoma, 4.64 µM. In addition, the GI50 with RXF 393 renal was 3 µM; in the assay with IGROV1 ovarian, 4.31 µM; in the assay on ACHN renal, 3.97 µM. Moreover, the concentration for total growth inhibition (TGI) in the assay on NCI-H460 lung was 10.4 µM; in the assay on DU-145 prostate it was 16.6 µM; in the assay on CAKI-1 renal, 87.1 µM; in the assay with TK-10 renal, 35.9 µM; with MCF7 breast, 31.2 µM; with UACC-257 melanoma, above 100 µM. Also, the values for the TGI in the assay on RXF 393 renal, with IGROV1 ovarian and in the assay on ACHN renal were 9.8 µM, 13.6 µM and above 100 µM, respectively.

One may read the GI50 as the concentration giving 50% growth inhibition. The term TGI denotes the concentration at which net growth stops.
